# Data from patent publication US10046060B2, “Co-administration of an agent linked to an internalization peptide with an anti-inflammatory” (NoNO Inc., priority 2007, dated 2018).
# Ends that are not written are not given here.
# Tests used:
# [1] = test system: humans; experiment: Safety, Tolerability and Pharmacokinetic Study in humans: blood histamine; assay type: in vivo, human
# Procedure: We carried out a Safety, Tolerability and Pharmacokinetic Study of Tat-NR2B9c in humans. Subjects were either normal, healthy, non-smoking males or post-menopausal or surgically sterile female subjects with a minimum age of 18 years. The subjects were either administered Tat-NR2B9c, Lot #: 124-134-001B, or were given placebo (Phosphate Buffered Saline), Lot #: 124-134-001A, administered as an intravenous infusion (10±1 minutes). Four subjects were dosed in each of Cohorts 1 to 3, and 10 subjects were dosed in each of Cohorts 4 to 8. All 62 subjects completed the study. Treatment periods for each cohort were as follows: Cohort 1: Sep. 14, 2006; Cohort 2: Sep. 26, 2006; Cohort 3: Oct. 6, 2006; Cohort 4: Oct. 20, 2006; Cohort 5: Nov. 6, 2006; Cohort 6: Dec. 4, 2006; Cohort 7: Dec. 17, 2006; Cohort 8: Feb. 25, 2007.
# During the study period, 11 blood samples were collected for pharmacokinetic analysis from each subject at the following timepoints: 0.00 (pre-dose), 0.08 (5 minutes), 0.17 to 0.25 (10 to 15 minutes, precisely at the end of each individual drug infusion), 0.33 (20 minutes), 0.50, 0.75, 1.00, 2.00, 6.00, 12.00, and 24.00 hours post-dose. In addition, 8 blood samples were collected for histamine analysis from each subject at the following timepoints: 0.00 (pre-dose), and at 0.08 (5 minutes), 0.17 (10 minutes), 0.25, 0.50, 1.00, 2.00, and 24.00 hours post-dose.
# [2] = Maximum Tolerated Dose in preclinical animal trials, rats; conditions: rat, in vivo
sequence,measurement,setting,value
YGRKKRRQRRRKLSSIESDV [Tat-NR2B9c],Number of Subjects with Histamine levels >10 nmol/L,"[1]; NA-1 0.75 mg/kg (n = 8), Day 1, 0.00 hr",0
same,Number of Subjects with Histamine levels >10 nmol/L,"[1]; NA-1 0.75 mg/kg (n = 8), Day 1, 0.08 hr",0
same,Number of Subjects with Histamine levels >10 nmol/L,"[1]; NA-1 0.75 mg/kg (n = 8), Day 1, 0.17 hr",0
same,Number of Subjects with Histamine levels >10 nmol/L,"[1]; NA-1 0.75 mg/kg (n = 8), Day 1, 0.25 hr",0
same,Number of Subjects with Histamine levels >10 nmol/L,"[1]; NA-1 0.75 mg/kg (n = 8), Day 1, 0.50 hr",0
same,Number of Subjects with Histamine levels >10 nmol/L,"[1]; NA-1 0.75 mg/kg (n = 8), Day 1, 1.00 hr",0
same,Number of Subjects with Histamine levels >10 nmol/L,"[1]; NA-1 0.75 mg/kg (n = 8), Day 1, 2.00 hr",0
same,Number of Subjects with Histamine levels >10 nmol/L,"[1]; NA-1 0.75 mg/kg (n = 8), Day 1, 24.00 hr",0
same,Number of Subjects with Histamine levels >10 nmol/L,"[1]; NA-1 0.75 mg/kg (n = 8), Day 7",0
same,Number of Subjects with Histamine levels >10 nmol/L,"[1]; NA-1 0.75 mg/kg (n = 8), Day 14",0
same,Number of Subjects with Histamine levels >10 nmol/L,"[1]; NA-1 0.75 mg/kg (n = 8), Day 28 End-of-study",0
same,Number of Subjects with Histamine levels >10 nmol/L,"[1]; NA-1 0.75 mg/kg (n = 8), Screening",0
same,Number of Subjects with Histamine levels >10 nmol/L,"[1]; NA-1 1.50 mg/kg (n = 8), Day 1, 0.00 hr",0
same,Number of Subjects with Histamine levels >10 nmol/L,"[1]; NA-1 1.50 mg/kg (n = 8), Day 1, 0.08 hr",0
same,Number of Subjects with Histamine levels >10 nmol/L,"[1]; NA-1 1.50 mg/kg (n = 8), Day 1, 0.17 hr",0
same,Number of Subjects with Histamine levels >10 nmol/L,"[1]; NA-1 1.50 mg/kg (n = 8), Day 1, 0.25 hr",0
same,Number of Subjects with Histamine levels >10 nmol/L,"[1]; NA-1 1.50 mg/kg (n = 8), Day 1, 0.50 hr",0
same,Number of Subjects with Histamine levels >10 nmol/L,"[1]; NA-1 1.50 mg/kg (n = 8), Day 1, 1.00 hr",0
same,Number of Subjects with Histamine levels >10 nmol/L,"[1]; NA-1 1.50 mg/kg (n = 8), Day 1, 2.00 hr",0
same,Number of Subjects with Histamine levels >10 nmol/L,"[1]; NA-1 1.50 mg/kg (n = 8), Day 1, 24.00 hr",0
same,Number of Subjects with Histamine levels >10 nmol/L,"[1]; NA-1 1.50 mg/kg (n = 8), Day 7",0
same,Number of Subjects with Histamine levels >10 nmol/L,"[1]; NA-1 1.50 mg/kg (n = 8), Day 14",0
same,Number of Subjects with Histamine levels >10 nmol/L,"[1]; NA-1 1.50 mg/kg (n = 8), Day 28 End-of-study",0
same,Number of Subjects with Histamine levels >10 nmol/L,"[1]; NA-1 1.50 mg/kg (n = 8), Screening",0
same,Number of Subjects with Histamine levels >10 nmol/L,"[1]; NA-1 2.60 mg/kg (n = 8), Day 1, 0.00 hr",0
same,Number of Subjects with Histamine levels >10 nmol/L,"[1]; NA-1 2.60 mg/kg (n = 8), Day 1, 0.08 hr",0
same,Number of Subjects with Histamine levels >10 nmol/L,"[1]; NA-1 2.60 mg/kg (n = 8), Day 1, 0.17 hr",0
same,Number of Subjects with Histamine levels >10 nmol/L,"[1]; NA-1 2.60 mg/kg (n = 8), Day 1, 0.25 hr",0
same,Number of Subjects with Histamine levels >10 nmol/L,"[1]; NA-1 2.60 mg/kg (n = 8), Day 1, 0.50 hr",0
same,Number of Subjects with Histamine levels >10 nmol/L,"[1]; NA-1 2.60 mg/kg (n = 8), Day 1, 1.00 hr",0
same,Number of Subjects with Histamine levels >10 nmol/L,"[1]; NA-1 2.60 mg/kg (n = 8), Day 1, 2.00 hr",0
same,Number of Subjects with Histamine levels >10 nmol/L,"[1]; NA-1 2.60 mg/kg (n = 8), Day 1, 24.00 hr",0
same,Number of Subjects with Histamine levels >10 nmol/L,"[1]; NA-1 2.60 mg/kg (n = 8), Day 7",0
same,Number of Subjects with Histamine levels >10 nmol/L,"[1]; NA-1 2.60 mg/kg (n = 8), Day 14",0
same,Number of Subjects with Histamine levels >10 nmol/L,"[1]; NA-1 2.60 mg/kg (n = 8), Day 28 End-of-study",0
same,Number of Subjects with Histamine levels >10 nmol/L,"[1]; NA-1 2.60 mg/kg (n = 8), Screening",0
same,Number of Subjects with Histamine levels >10 nmol/L,"[1]; NA-1 3.75 mg/kg (n = 8), Day 1, 0.00 hr",0
same,Number of Subjects with Histamine levels >10 nmol/L,"[1]; NA-1 3.75 mg/kg (n = 8), Day 1, 0.08 hr",0
same,Number of Subjects with Histamine levels >10 nmol/L,"[1]; NA-1 3.75 mg/kg (n = 8), Day 1, 0.17 hr (10 minutes)",7 of the 8
same,Number of Subjects with Histamine levels >10 nmol/L,"[1]; NA-1 3.75 mg/kg (n = 8), Day 1, 0.17 hr (10 minutes), listed as NA 1, 3.75 mg/kg",Seven of 8
same,Number of Subjects with Histamine levels >10 nmol/L,"[1]; NA-1 3.75 mg/kg (n = 8), Day 1, 0.17 hr (10 minutes), listed as NA-1, 3.75 mg/kg",7
same,Number of Subjects with Histamine levels >10 nmol/L,"[1]; NA-1 3.75 mg/kg (n = 8), Day 1, 0.25 hr (15 minutes)",3
same,Number of Subjects with Histamine levels >10 nmol/L,"[1]; NA-1 3.75 mg/kg (n = 8), Day 1, 0.50 hr",0
same,Number of Subjects with Histamine levels >10 nmol/L,"[1]; NA-1 3.75 mg/kg (n = 8), Day 1, 1.00 hr",0
same,Number of Subjects with Histamine levels >10 nmol/L,"[1]; NA-1 3.75 mg/kg (n = 8), Day 1, 2.00 hr",0
same,Number of Subjects with Histamine levels >10 nmol/L,"[1]; NA-1 3.75 mg/kg (n = 8), Day 1, 24.00 hr",0
same,Number of Subjects with Histamine levels >10 nmol/L,"[1]; NA-1 3.75 mg/kg (n = 8), Day 7",0
same,Number of Subjects with Histamine levels >10 nmol/L,"[1]; NA-1 3.75 mg/kg (n = 8), Day 14",0
same,Number of Subjects with Histamine levels >10 nmol/L,"[1]; NA-1 3.75 mg/kg (n = 8), Day 28 End-of-study",0
same,Number of Subjects with Histamine levels >10 nmol/L,"[1]; NA-1 3.75 mg/kg (n = 8), Screening",0
same,Time for abnormal histamine results to return to the normal range,[1]; after drug administration,≤ 24.00 h
same,Abnormal histamine levels in other dose groups,[1]; dose groups other than 3.75 mg/kg,no treatment group had significant abnormal levels of histamine
same,MTD,[2],100 mg/kg
